Laboratory results from the NIST ThermoML archive (doi:10.1016/j.tca.2011.08.002).
Numbers after ± are expanded uncertainties.

Key:
[1] = refractive index (Na D-line) (dimensionless); xn = mol fraction of the nth substance listed; conditions: 101 kPa, Liquid, Standard Abbe refractometry
[2] = xn = mol fraction of the nth substance listed; conditions: 101 kPa, Liquid, Vibrating tube method

C1CCC(NC2CCCCC2)CC1 [N-cyclohexylcyclohexanamine] + CCC(C)O
Conditions | mass density, [2] [kg/m3] | refractive index, [1]
288.15 K, x2 = 0 | 915.498 ± 0.23 | 1.48636 ± 0.0004
288.15 K, x2 = 0.0996 | 912.349 ± 0.23 | 1.48336 ± 0.0004
288.15 K, x2 = 0.1998 | 908.349 ± 0.23 | 1.47951 ± 0.0004
288.15 K, x2 = 0.3 | 903.446 ± 0.23 | 1.47497 ± 0.0004
288.15 K, x2 = 0.3998 | 897.469 ± 0.23 | 1.46961 ± 0.0004
288.15 K, x2 = 0.5011 | 889.89 ± 0.23 | 1.4629 ± 0.0004
288.15 K, x2 = 0.599 | 880.802 ± 0.23 | 1.45516 ± 0.0004
288.15 K, x2 = 0.6999 | 869.241 ± 0.24 | 1.44554 ± 0.0004
288.15 K, x2 = 0.7998 | 854.484 ± 0.24 | 1.43365 ± 0.0004
288.15 K, x2 = 0.8996 | 835.606 ± 0.24 | 1.41884 ± 0.0004
288.15 K, x2 = 0.9494 | 823.99 ± 0.24 | 1.41002 ± 0.0004
293.15 K, x2 = 0 | 911.705 ± 0.23 | 1.48416 ± 0.0004
293.15 K, x2 = 0.0996 | 908.493 ± 0.23 | 1.48112 ± 0.0004
293.15 K, x2 = 0.1998 | 904.427 ± 0.23 | 1.47724 ± 0.0004
293.15 K, x2 = 0.3 | 899.455 ± 0.23 | 1.47268 ± 0.0004
293.15 K, x2 = 0.3998 | 893.416 ± 0.24 | 1.46731 ± 0.0004
293.15 K, x2 = 0.5011 | 885.775 ± 0.24 | 1.46057 ± 0.0004
293.15 K, x2 = 0.599 | 876.639 ± 0.24 | 1.45283 ± 0.0004
293.15 K, x2 = 0.6999 | 865.057 ± 0.24 | 1.44322 ± 0.0004
293.15 K, x2 = 0.7998 | 850.31 ± 0.24 | 1.43136 ± 0.0004
293.15 K, x2 = 0.8996 | 831.493 ± 0.24 | 1.41658 ± 0.0004
293.15 K, x2 = 0.9494 | 819.925 ± 0.24 | 1.40783 ± 0.0004
298.15 K, x2 = 0 | 907.923 ± 0.23 | 1.48198 ± 0.0004
298.15 K, x2 = 0.0996 | 904.633 ± 0.23 | 1.47892 ± 0.0004
298.15 K, x2 = 0.1998 | 900.497 ± 0.23 | 1.47499 ± 0.0004
298.15 K, x2 = 0.3 | 895.457 ± 0.24 | 1.47041 ± 0.0004
298.15 K, x2 = 0.3998 | 889.353 ± 0.24 | 1.465 ± 0.0004
298.15 K, x2 = 0.5011 | 881.646 ± 0.24 | 1.45825 ± 0.0004
298.15 K, x2 = 0.599 | 872.452 ± 0.24 | 1.4505 ± 0.0004
298.15 K, x2 = 0.6999 | 860.838 ± 0.24 | 1.44088 ± 0.0004
298.15 K, x2 = 0.7998 | 846.088 ± 0.24 | 1.42906 ± 0.0004
298.15 K, x2 = 0.8996 | 827.317 ± 0.24 | 1.41432 ± 0.0004
298.15 K, x2 = 0.9494 | 815.784 ± 0.24 | 1.40558 ± 0.0004
303.15 K, x2 = 0 | 904.144 ± 0.23 | 1.47978 ± 0.0004
303.15 K, x2 = 0.0996 | 900.775 ± 0.23 | 1.47667 ± 0.0004
303.15 K, x2 = 0.1998 | 896.561 ± 0.23 | 1.47273 ± 0.0004
303.15 K, x2 = 0.3 | 891.448 ± 0.24 | 1.46813 ± 0.0004
303.15 K, x2 = 0.3998 | 885.272 ± 0.24 | 1.4627 ± 0.0004
303.15 K, x2 = 0.5011 | 877.495 ± 0.24 | 1.45591 ± 0.0004
303.15 K, x2 = 0.599 | 868.239 ± 0.24 | 1.44817 ± 0.0004
303.15 K, x2 = 0.6999 | 856.586 ± 0.24 | 1.43852 ± 0.0004
303.15 K, x2 = 0.7998 | 841.819 ± 0.24 | 1.42671 ± 0.0004
303.15 K, x2 = 0.8996 | 823.072 ± 0.24 | 1.412 ± 0.0004
303.15 K, x2 = 0.9494 | 811.566 ± 0.24 | 1.40329 ± 0.0004
308.15 K, x2 = 0 | 900.372 ± 0.23 | 1.47761 ± 0.0004
308.15 K, x2 = 0.0996 | 896.914 ± 0.23 | 1.47445 ± 0.0004
308.15 K, x2 = 0.1998 | 892.619 ± 0.23 | 1.47046 ± 0.0004
308.15 K, x2 = 0.3 | 887.426 ± 0.24 | 1.4658 ± 0.0004
308.15 K, x2 = 0.3998 | 881.174 ± 0.24 | 1.46034 ± 0.0004
308.15 K, x2 = 0.5011 | 873.319 ± 0.24 | 1.45358 ± 0.0004
308.15 K, x2 = 0.599 | 863.994 ± 0.24 | 1.44577 ± 0.0004
308.15 K, x2 = 0.6999 | 852.289 ± 0.24 | 1.43617 ± 0.0004
308.15 K, x2 = 0.7998 | 837.495 ± 0.24 | 1.42437 ± 0.0004
308.15 K, x2 = 0.8996 | 818.755 ± 0.24 | 1.40968 ± 0.0004
308.15 K, x2 = 0.9494 | 807.262 ± 0.25 | 1.40094 ± 0.0004
313.15 K, x2 = 0 | 896.608 ± 0.23 | 1.47562 ± 0.0004
313.15 K, x2 = 0.0996 | 893.053 ± 0.23 | 1.4722 ± 0.0004
313.15 K, x2 = 0.1998 | 888.669 ± 0.24 | 1.46818 ± 0.0004
313.15 K, x2 = 0.3 | 883.39 ± 0.24 | 1.46347 ± 0.0004
313.15 K, x2 = 0.3998 | 877.057 ± 0.24 | 1.45797 ± 0.0004
313.15 K, x2 = 0.5011 | 869.116 ± 0.24 | 1.45115 ± 0.0004
313.15 K, x2 = 0.599 | 859.715 ± 0.24 | 1.44326 ± 0.0004
313.15 K, x2 = 0.6999 | 847.947 ± 0.24 | 1.43367 ± 0.0004
313.15 K, x2 = 0.7998 | 833.106 ± 0.24 | 1.42179 ± 0.0004
313.15 K, x2 = 0.8996 | 814.354 ± 0.24 | 1.40723 ± 0.0004
313.15 K, x2 = 0.9494 | 802.87 ± 0.25 | 1.39851 ± 0.0004
318.15 K, x2 = 0 | 892.847 ± 0.23 | 1.47347 ± 0.0004
318.15 K, x2 = 0.0996 | 889.189 ± 0.23 | 1.46999 ± 0.0004
318.15 K, x2 = 0.1998 | 884.706 ± 0.24 | 1.46593 ± 0.0004
318.15 K, x2 = 0.3 | 879.336 ± 0.24 | 1.46119 ± 0.0004
318.15 K, x2 = 0.3998 | 872.915 ± 0.24 | 1.45564 ± 0.0004
318.15 K, x2 = 0.5011 | 864.882 ± 0.24 | 1.44879 ± 0.0004
318.15 K, x2 = 0.599 | 855.394 ± 0.24 | 1.44089 ± 0.0004
318.15 K, x2 = 0.6999 | 843.552 ± 0.24 | 1.43125 ± 0.0004
318.15 K, x2 = 0.7998 | 828.652 ± 0.24 | 1.41937 ± 0.0004
318.15 K, x2 = 0.8996 | 809.861 ± 0.24 | 1.40479 ± 0.0004
318.15 K, x2 = 0.9494 | 798.377 ± 0.25 | 1.39613 ± 0.0004
323.15 K, x2 = 0 | 889.089 ± 0.23 | 1.47134 ± 0.0004
323.15 K, x2 = 0.0996 | 885.321 ± 0.24 | 1.46783 ± 0.0004
323.15 K, x2 = 0.1998 | 880.732 ± 0.24 | 1.46374 ± 0.0004
323.15 K, x2 = 0.3 | 875.264 ± 0.24 | 1.45889 ± 0.0004
323.15 K, x2 = 0.3998 | 868.746 ± 0.24 | 1.45336 ± 0.0004
323.15 K, x2 = 0.5011 | 860.611 ± 0.24 | 1.44656 ± 0.0004
323.15 K, x2 = 0.599 | 851.029 ± 0.24 | 1.43856 ± 0.0004
323.15 K, x2 = 0.6999 | 839.101 ± 0.24 | 1.42888 ± 0.0004
323.15 K, x2 = 0.7998 | 824.126 ± 0.25 | 1.41694 ± 0.0004
323.15 K, x2 = 0.8996 | 805.292 ± 0.25 | 1.40233 ± 0.0004
323.15 K, x2 = 0.9494 | 793.784 ± 0.25 | 1.39357 ± 0.0004
